# Assay results reported in patent publication US20090136551A1, “Substituted Dicyanoalkanes For Combating Animal Pests” (BASF AKTIENGESELLSCHAFT, priority 2005, published 2009).
# Tests used:
# [1] = test system: Bird Cherry-Oat Aphid (Rhopalosiphum padi); experiment: Activity against bird cherry-oat aphid (sprayed barley leaf disks); type: in vivo; details: foliar, 120 h
# Experimental: B.6. Activity Against Bird Cherry-Oat Aphid Aphid (Rhopalosiphum padi)
# The active compounds were formulated in 1:3 DMSO:water. Barley leaf disks were placed into microtiterplates filled with 0.8% agar-agar and 2.5 ppm OPUS™. The leaf disks were sprayed with 2.5 μl of the test solution and 5 to 8 adult aphids were placed into the microtiterplates which were then closed and kept at 19-22° C. and 35-45% under fluorescent light for 5 days. Mortality was assessed on the basis of vital, reproduced aphids. Tests were replicated 2 times.
# [2] = test system: Yellowfever Mosquito (Aedes aegyptii); experiment: Activity via glass contact (treated glass vials); type: in vivo; details: read-out: mortality against yellowfever mosquito
# Excerpt: B.7. Activity Against Argentine Ant (Linepithema humile), Harvester Ant (Pogonomyrmex californicus), Acrobat Ant (Crematogaster spp.), Carpenter Ant (Camponotus floridanus), Fire Ant (Solenopsis invicta), House Fly (Musca domestica), Stable Fly (Stomoxys calcitrans), Flesh Fly (Sarcophaga sp.), Yellowfever Mosquito (Aedes aegyptii), House Mosquito (Culex quinquefasciatus), Malaria Mosquito (Anopheles albimanus), German Cockroach (Blattella Germanica), Cat Flea (Ctenocephalides felis), and Brown Dog Tick (Rhipicephalus sanguineus) Via Glass Contact
# Glass vials were treated with 0.5 ml of a solution of active ingredient in acetone and allowed to dry. Insects or ticks were placed into each vial together with some food and moisture supply.
compound,measurement,setting,value
"N#CC(C#N)(CCC(F)(F)F)Cc1cccc2nsnc12 [I.1, 2-benzo[1,2,5]thiadiazol-4-ylmethyl-2-(3,3,3-trifluoropropyl)-malononitrile]",mortality at 300 ppm,[1],> 90%
same,mortality at 10 ppm,[2],> 75%
